In patent US11622988B2, “Method for reducing fat accumulation by using tetramethylisoscutellarein” (TCI CO., LTD., priority 2018, dated 2023):

System: mouse bone marrow stromal cell OP9
Experiment: Oil-red O staining of fat accumulation in differentiated OP9 cells
Assay type: cell-based
Details: 10 μg/mL, incubated 7-10 days, O.D. 510 nm
Description: First, 8×10^4 mouse bone marrow stromal cell OP9 (ATCC® CRL-2749™) was seeded with 500 μL of pre-adipocyte expansion medium (supplemented with 90% minimum essential medium alpha medium (Gibco), […] (Gibco) and 1% penicillin/streptomycin (Gibco)) in a 24-well plate, and incubated at 37° C. for 7 days. Fresh differentiation medium (supplemented with 90% minimum essential medium alpha medium, 20% fetal bovine serum, and 1% penicillin/streptomycin) was replaced every three days. After 7 days, lipid droplet formation was observed using microscopy (ZEISS) to make sure the cells are fully differentiated.
Thereafter, five groups of OP9 cells (i.e. an experimental group, three comparative groups (comparative group 1 to comparative group 3) and a control group) were prepared. […]
The oil droplet was dissolved using 100% isopropanol, and the plate was put on shaker and incubation for 10 min. A volume of 100 μL was taken to 96-well plate for measuring the O.D ratio (510 nm) with the ELISA reader (BioTek).
The statistical significance of the differences between each group was determined by Student's t-test in Microsoft Excel. […]

## COc1ccc(-c2cc(=O)c3c(OC)cc(OC)c(OC)c3o2)cc1 [tetramethylisoscutellarein]
  oil red relative percentage, lower than the control group: 28%
